Like-named read-outs stand apart in the source and are kept apart here.
Tested on: alkaline protease API-25 produced by Bacillus sp. SD523 (Bacillus firmus, FERM BP-3774)
Format: biochemical
Protocol: To 500 μl of a 50 mM Atkins-Pantin phosphate buffer solution (pH 10) is added 50 μl of an enzyme solution diluted appropriately, and the resulting mixture is preincubated at 30° C. for 3 to 5 minutes. Then, 500 μl of a 2% Hammerstein casein solution (pH 10) is added to the solution, and after 10 minutes 2 ml of TCA solution (0.132M TCA, adjusted to pH 4 with an acetate buffer solution) is added thereto to stop the reaction. After leaving it to stand at 30° C. for 10~15 minutes, the mixture is filtered using No. 2 filter paper (produced by Toyo Filter Paper Co., Ltd.). To 1 ml of the filtrate solution are added 5 ml of 0.4M sodium carbonate and 1 ml of 6-fold diluted phenol reagent. After leaving the mixture to stand at 30° C. for 20 minutes for color development, its optical density is measured at 660 nm.
Influence of various inhibitors against the enzyme of the present invention is examined under the conditions and by the method described below.
Enzyme solutions containing the enzyme of the present invention in a concentration of 20 nkatal/ml are prepared using a 50 mM borate buffer solution (pH 10), respectively. Various inhibitors in concentrations as shown in Table 11 are added to the enzyme solutions, respectively. After incubating the resulting mixtures at 30° C. for 30 minutes, the residual activity of the enzyme in the mixtures is measured. Results obtained are shown in Table 11, in which the activity is expressed in terms of relative activity assuming that the activity in the absence of inhibitors is 100%.

[1] = inhibitor 1 mM, enzyme 20 nkatal/ml in 50 mM borate buffer pH 10, incubated 30° C. for 30 minutes, activity in the absence of inhibitors = 100%
[2] = inhibitor 10 mM, enzyme 20 nkatal/ml in 50 mM borate buffer pH 10, incubated 30° C. for 30 minutes, activity in the absence of inhibitors = 100%

O=C(O)CN(CCN(CC(=O)O)CC(=O)O)CC(=O)O [EDTA, Ethylenediaminetetraacetic acid]
Residual Activity (%) (pH 10): 104%

O=C(O)c1cc[c]([Hg][Cl])cc1 [PCMB, pChloromercuribenzoic acid]
Residual Activity (%) [1]: 98%
Residual Activity (%) [2]: 90%

O=S(=O)(F)Cc1ccccc1 [PMSF, Phenylmethanesulfonyl fluoride]
Residual Activity (%) [1]: 31%
Residual Activity (%) [2]: 0.7%
Inhibition of the enzyme (in words) (summary of Table 11, reveals that the enzyme is a serine protease): inhibited by phenylmethanesulfonyl fluoride (PMSF) considerably

Source: patent US5387518A, “Alkaline protease having stability in solution with anionic surfactant, method for producing the same, use thereof and microorganism producing the same” (priority 1991, dated 1995)
